The values below come from patent US20240101573A1, “MACROCYCLIC K-RAS G12C INHIBITOR, PREPARATION METHOD THEREFOR AND USE THEREOF” (Abbisko Therapeutics Co., Ltd., priority 2020, published 2024).

The test system of assay [1] is MIA PaCa-2. Put plainly: Anti-proliferation 2D CTG test (MIA PaCa-2). The assay is classed as cell-based. The settings on record: MIAPACA-2 cells, 500 cells/well, 5 days incubation with compound, CTG readout. The gist of the method: (§1)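 H358 (1500 cells/well) and MIA PaCa-2 (500 cells/well) seeded overnight, then treated 5 days at 37 °C with 10-point 1:3 dilutions, top final […], 0.5% DMSO. Viability by CellTiter-Glo luminescence; IC50 from four-parameter fit normalized to plate controls.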

Assay [2] concerns H358. Put plainly: Anti-proliferation 2D CTG test (H358). Type of assay: cell-based. Particulars: H358 cells, 1500 cells/well, 5 days incubation with compound, CTG readout. The gist of the method: as §1
The mark [3] stands for this setting: Homo sapiens, MIA PaCa-2, 120 h.

With `C=CC(=O)N1C[C@H](C)N(c2nc(=O)n3c4nc(c(F)cc24)-c2c(ccc(Cl)c2F)OCC(O)C(O)c2ccnc(C(C)C)c2-3)C[C@H]1C` (stereo partly drawn) [Example 65, (R)-2^4-((2S,5R)-4-acryloyl-2,5-dimethylpiperazin-1-yl)-3^5-chloro-2^6,3^6-difluoro-6,7-dihydroxy-1^2-isopropyl-2^1,2^2-dihydro-4-oxa-2(1,7)-pyrido[2,3-d]pyrimidina-1(3,4)-pyridina-3(1,2)-benz ocycloheptane-2^2-one], the 50% inhibitory concentration (IC50) was determined as 1 nM in assay [1] (setting [3]) and 1 nM in assay [2] (Homo sapiens, NCI-H358, 120 h).
For the molecule `C=CC(=O)N1CCN(c2nc(=O)n3c4nc(c(F)cc24)-c2c(F)cccc2OCC(O)C(OC(=O)C(N)C(C)C)c2ccnc(C(C)C)c2-3)C(C)C1` [Example 23, 2^4-((S)-4-acryloyl-2-methylpiperazin-1-yl)-2^6,3^6-difluoro-6-hydroxy-1^2-isopropyl-2^2-oxo-2^1,2^2-dihydro-4-oxa-2(1,7)-pyrido[2,3-d]pyrimidina-1(3,4)-pyridina-3(1,2)-benzocycloheptane-7-yl L-valine ester], the IC50 was found to be 9 nM in assay [1] and 11 nM in assay [2].
Consider `C=CC(=O)N1CCN(c2nc(=O)n3c4nc(c(F)cc24)-c2c(ccc(Cl)c2F)OCC(O)C(OCC)c2ccnc(C(C)C)c2-3)[C@@H](C)C1` (stereo partly drawn) [Example 68, 2^4-((S)-4-acryloyl-2-methylpiperazin-1-yl)-3^5-chloro-7-ethoxy-2^6,3^6-difluoro-6-hydroxy-1^2-isopropyl-2^1,2^2-dihydro-4-oxa-2(1,7)-pyrido[2,3-d]pyrimidina-1(3,4)-pyridina-3(1,2)-benzocycloheptane-2^2-one], for which the IC50 in assay [1] is 22 nM; in assay [2], 27 nM.
Turning to “11-((S)-4-acryloyl-2-methylpiperazin-1-yl)-2-((dimethylamino)methyl)-15,21-difluoro-7-isopropyl-3a,20a-dihydro-9H,20H-12,14-(epiethane[1,2]diylidene)benzo[b][1,3]dioxazolo[4,5-j]pyri do[3,4-h]pyrimido[6,1-f][1]oxa[5,7]diazacyclododecin-9-one [Example 64]”, the results for the IC50 in assay [1] and in assay [2] were 1 nM and 3 nM, respectively.
In the same order, the values of `C=CC(=O)N1CCN(c2nc(=O)n3c4nc(c(F)cc24)-c2c(F)cccc2OCC(OCCF)C(O)c2ccnc(C(C)C)c2-3)[C@@H](C)C1` (stereo partly drawn) [Example 39, (R)-2^4-((S)-4-acryloyl-2-methylpiperazin-1-yl)-2^6,3^6-difluoro-6-(2-fluoroethoxy)-7-hydroxy-1^2-isopropyl-2^1,2^2-dihydro-4-oxa-2(1,7)-pyrido[2,3-d]pyrimidina-1(3,4)-pyridina-3(1,2)-benzocycloheptane-2^2-one] are 2 nM and 4 nM.
Regarding `C=CC(=O)N1C[C@H](C)N(c2nc(=O)n3c4nc(c(F)cc24)-c2c(F)cccc2OCC(O)C(OCC)c2ccnc(C(C)C)c2-3)C[C@H]1C` (stereo partly drawn) [Example 57, (R)-2^4-((2S,5R)-4-acryloyl-2,5-dimethylpiperazin-1-yl)-7-ethoxy-2^6,3^6-difluoro-6-hydroxy-1^2-isopropyl-2^1,2^2-dihydro-4-oxa-2(1,7)-pyrido[2,3-d]pyrimidina-1(3,4)-pyridina-3(1,2)-benzocycloheptane-2^2-one], the IC50 was determined as 18 nM in assay [1] and 35 nM in assay [2].
For `C=CC(=O)N1CCN(c2nc(=O)n3c4nc(c(F)cc24)-c2c(F)cccc2OCC(=O)C(OC(C)=O)c2ccnc(C(C)C)c2-3)[C@@H](C)C1` (stereo partly drawn) [Example 20, (R)-2^4-((S)-4-acryloyl-2-methylpiperazin-1-yl)-2^6,3^6-difluoro-1^2-isopropyl-2^2,6-dioxo-2^1,2^2-dihydro-4-oxa-2(1,7)-pyrido[2,3-d]pyrimidina-(3,4)-pyridina-3(1,2)-benzocycloheptane-7-yl acetate], the IC50 is 30 nM in assay [1] and 25 nM in assay [2].
With `C=CC(=O)N1CCN(c2nc(=O)n3c4nc(c(F)cc24)-c2c(F)cccc2OCC(OC)C(OC)c2ccnc(C(C)C)c2-3)[C@@H](C)C1` (stereo partly drawn) [Example 59, 2^4-((S)-4-acryloyl-2-methylpiperazin-1-yl)-2^6,3^6-difluoro-1^2-isopropyl-6,7-dimethoxy-2^1,2^2-dihydro-4-oxa-2(1,7)-pyrido[2,3-d]pyrimidina-1(3,4)-pyridina-3(1,2)-benzocycloheptane-2^2-one], the IC50 stood at 9 nM in assay [1] (setting [3]) and 23 nM in assay [2] (Homo sapiens, NCI-H358, 120 h).
In the case of `C=CC(=O)N1CCN(c2nc(=O)n3c4nc(c(F)cc24)-c2c(F)cccc2OCC(O)C(OC(=O)C(C)C)c2ccnc(C(C)C)c2-3)[C@@H](C)C1` (stereo partly drawn) [Example 9, 2^4-((S)-4-acryloyl-2-methylpiperazin-1-yl)-2^6,3^6-difluoro-6-hydroxy-1^2-isopropyl-2^2-oxo-2^1,2^2-dihydro-4-oxa-2(1,7)-pyrido[2,3-d]pyrimidina-1(3,4)-pyridina-3(1,2)-benzocycloheptane-7-yl isobutyrate], the IC50 in assay [1] (setting [3]) was 13 nM; in assay [2] (Homo sapiens, NCI-H358, 120 h) it was 21 nM.
For `C=CC(=O)N1CCN(c2nc(=O)n3c4nc(c(F)cc24)-c2c(F)cccc2OCC(OCC)C(O)c2ccnc(C(C)C)c2-3)[C@@H](C)C1` (stereo partly drawn) [Example 46, (S)-2^4-((S)-4-acryloyl-2-methylpiperazin-1-yl)-6-ethoxy-2^6,3^6-difluoro-7-hydroxy-1^2-isopropyl-2^1,2^2-dihydro-4-oxa-2(1,7)-pyrido[2,3-d]pyrimidina-1(3,4)-pyridina-3(1,2)-benzocycloheptane-2^2-one], the IC50 in assay [1] amounted to 148 nM; in assay [2], 261 nM.
As to `C=CC(=O)N1CCN(c2nc(=O)n3c4nc(c(F)cc24)-c2c(F)cccc2OCC(O)C(OCC)c2ccnc(C(C)C)c2-3)[C@@H](C)C1` (stereo partly drawn) [Example 43, (R)-2^4-((S)-4-acryloyl-2-methylpiperazin-1-yl)-7-ethoxy-2^6,3^6-difluoro-6-hydroxy-1^2-isopropyl-2^1,2^2-dihydro-4-oxa-2(1,7)-pyrido[2,3-d]pyrimidina-1(3,4)-pyridina-3(1,2)-benzocycloheptane-2^2-one], the IC50 in assay [1] came to 6 nM; in assay [2] it was 5 nM.
Turning to `C=CC(=O)N1CCN(c2nc(=O)n3c4nc(c(F)cc24)-c2c(F)cccc2OCC(OCOC(=O)OC)C(OCOC(=O)OC)c2ccnc(C(C)C)c2-3)[C@@H](C)C1` (stereo partly drawn) [Example 17, ((2^4-((S)-4-acryloyl-2-methylpiperazin-1-yl)-2^6,3^6-difluoro-1^2-isopropyl-2^2-oxo-2^1,2^2-dihydro-4-oxa-2(1,7)-pyrido[2,3-d]pyrimidina-1(3,4)-pyridina-3(1,2)-benzocycloheptane-6,7-diyl)di(oxo))di(methylene) dimethyldi(carbonate)], the IC50 in assay [1] (setting [3]) is 9 nM; in assay [2] (Homo sapiens, NCI-H358, 120 h), 9 nM.
Take `C=CC(=O)N1CCN(c2nc(=O)n3c4nc(c(F)cc24)-c2c(F)cccc2OCC(OC(=O)C2CC2)C(OC(=O)C2CC2)c2ccnc(C(C)C)c2-3)[C@@H](C)C1` (stereo partly drawn) [Example 14, 2^4-((S)-4-acryloyl-2-methylpiperazin-1-yl)-2^6,3^6-difluoro-1^2-isopropyl-2^2-oxo-2^1,2^2-dihydro-4-oxa-2(1,7)-pyrido[2,3-d]pyrimidina-1(3,4)-pyridina-3(1,2)-benzocycloheptane-6,7-diyl dicyclopropanecarboxylate]: the half-inhibitory concentration (IC50) was 9 nM in assay [1] (setting [3]) and 6 nM in assay [2] (Homo sapiens, NCI-H358, 120 h).
For `C=CC(=O)N1CCN(c2nc(=O)n3c4nc(c(F)cc24)-c2c(F)cccc2OCC(O)C(O)c2ccnc(C(C)C)c2-3)[C@@H](C)C1` (stereo partly drawn) [Example 1-R, (R)-2^4-((S)-4-acryloyl-2-methylpiperazin-1-yl)-2^6,3^6-difluoro-6,7-dihydroxy-1^2-isopropyl-2^1,2^2-dihydro-4-oxa-2(1,7)-pyrido[2,3-d]pyrimidina-1(3,4)-pyridina-3(1,2)-benzocycloheptane-2^2-one], the IC50 in assay [1] came out at 12 nM; in assay [2] it was 9 nM.
With `C=CC(=O)N1CCN(c2nc(=O)n3c4nc(c(F)cc24)-c2c(F)cccc2OCCC(OC(C)=O)c2ccnc(C(C)C)c2-3)[C@@H](C)C1` (stereo partly drawn) [Example 16, 2^4-((S)-4-acryloyl-2-methylpiperazin-1-yl)-2^6,3^6-difluoro-1^2-isopropyl-2^2-oxo-2^1,2^2-dihydro-4-oxa-2(1,7)-pyrido[2,3-d]pyrimidina-1(3,4)-pyridina-3(1,2)-benzocycloheptane-7-yl acetate], the IC50 in assay [1] (setting [3]) is 20 nM; in assay [2] (Homo sapiens, NCI-H358, 120 h), 29 nM.
As for `C=CC(=O)N1CCN(c2nc(=O)n3c4nc(c(F)cc24)-c2c(F)cccc2OCC(OC(C)=O)C(OC(C)=O)c2ccnc(C(C)C)c2-3)[C@@H](C)C1` (stereo partly drawn) [Example 18, 2^4-((S)-4-acryloyl-2-methylpiperazin-1-yl)-2^6,3^6-difluoro-1^2-isopropyl-2^2-oxo-2^1,2^2-dihydro-4-oxa-2(1,7)-pyrido[2,3-d]pyrimidina-1(3,4)-pyridina-3(1,2)-benzocycloheptane-6,7-diyl diacetate], the concentration for half-maximal inhibition (IC50) stood at 6 nM in assay [1] (setting [3]) and 14 nM in assay [2] (Homo sapiens, NCI-H358, 120 h).
As for `C=CC(=O)N1CCN(c2nc(=O)n3c4nc(c(F)cc24)-c2c(F)cccc2OCC(OC(C)C)C(O)c2ccnc(C(C)C)c2-3)[C@@H](C)C1` (stereo partly drawn) [Example 56, (S)-2^4-((S)-4-acryloyl-2-methylpiperazin-1-yl)-6-isopropoxy-2^6,3^6-difluoro-7-hydroxy-1^2-isopropyl-2^1,2^2-dihydro-4-oxa-2(1,7)-pyrido[2,3-d]pyrimidina-1(3,4)-pyridina-3(1,2)-benzocycloheptane-2^2-one], the IC50 in assay [1] was determined as 218 nM; in assay [2], 221 nM.
For `C=CC(=O)N1CCN(c2nc(=O)n3c4nc(c(F)cc24)-c2c(F)cccc2OCC(O)C(OCC)c2ccnc(C(C)C)c2-3)[C@@H](C)C1` (stereo partly drawn) [Example 28, 2^4-((S)-4-acryloyl-2-methylpiperazin-1-yl)-7-ethoxy-2^6,3^6-difluoro-6-hydroxy-1^2-isopropyl-2^1,2^2-dihydro-4-oxa-2(1,7)-pyrido[2,3-d]pyrimidina-1(3,4)-pyridina-3(1,2)-benzocycloheptane-2^2-one], the values for the IC50 in assay [1] and in assay [2] were 27 nM and 28 nM, respectively.

As a reminder, the IC50 is the concentration needed to halve the response being measured.
